Test system: QTc interval
Details: 187 patients with cancer

COc1cc(OC)cc(N(CCNC(C)C)c2ccc3ncc(-c4cnn(C)c4)nc3c2)c1 [erdafitinib, N-(3,5-dimethoxy-phenyl)-N′-(1-methylethyl)-N-[3-(1-methyl-1H-pyrazol-4-yl)quinoxalin-6-yl]ethane-1,2-diamine]
effect on the QTc interval: no large effect (i.e., >20 ms)
